Laboratory results taken from patent US11186554B2, “Non-fused tricyclic compounds” (VIVACE THERAPEUTICS, INC., priority 2017, dated 2021).

Each molecule was assayed on firefly luciferase activity (assay: Dual-Glo firefly/renilla luciferase reporter assay in cells). Details: 24 h, read-out: Firefly Luciferase IC50 (μM).
Format: cell-based

SMILES | IC50
Cc1ccc(-c2nnn(CCO)n2)c(Nc2ccc(C(F)(F)F)cc2)c1 [Compound 243, 2-(5-(4-methyl-2-((4-(trifluoromethyl)phenyl)amino)phenyl)-2H-tetrazol-2-yl)ethanol] | < 0.1 µM
OCCn1nnc(-c2ccccc2Nc2ccc(Cl)cc2)n1 [Compound 208, 2-(5-(2-((4-chlorophenyl)amino)phenyl)-2H-tetrazol-2-yl)ethan-1-ol] | 0.1 to 1 µM
Cc1ccc(Nc2ccc(C(F)(F)F)cc2)c(-c2nnn(CCO)n2)c1 [Compound 242, 2-(5-(5-methyl-2-((4-(trifluoromethyl)phenyl)amino)phenyl)-2H-tetrazol-2-yl)ethanol] | < 0.1 µM
CNC(=O)Cn1nnc(-c2ccccc2Nc2ccc(OC(F)(F)F)cc2)n1 [Compound 46, N-methyl-2-[5-[2-[4-(trifluoromethoxy)anilino]phenyl]tetrazol-2-yl]acetamide] | 0.1 to 1 µM
OCCn1nnc(-c2ccccc2Nc2ccc(OC(F)(F)F)cc2)n1 [Compound 11, 2-(5-(2-((4-(Trifluoromethoxy)phenyl)amino)phenyl)-2H-tetrazol-2-yl)ethanol] | < 0.1 µM
CCc1ccc(Nc2ccccc2-c2nnn(CCO)n2)cc1 [Compound 9, 2-[5-[2-(4-ethylanilino)phenyl]tetrazol-2-yl]ethanol] | 0.1 to 1 µM
CCOC(=O)Cn1nnc(-c2ccccc2Nc2ccc(F)cc2)n1 [Compound 7, ethyl 2-[5-[2-(4-fluoroanilino)phenyl]tetrazol-2-yl]acetate] | 0.1 to 1 µM
COc1ccc(Nc2ccccc2-c2nnn(CCO)n2)cc1 [Compound 12, 2-[5-[2-(4-methoxyanilino)phenyl]tetrazol-2-yl]ethanol] | 0.1 to 1 µM
OCCn1nnc(-c2cnccc2Nc2ccc(C(F)(F)F)cc2)n1 [Compound 78, 2-[5-[4-[4-(trifluoromethyl)anilino]-3-pyridyl]tetrazol-2-yl]ethanol] | 1 to 5 µM
OCCn1cnc(-c2ccccc2Nc2cccc(C(F)(F)F)c2)n1 [Compound 39, 2-(3-(2-((3-(trifluoromethyl)phenyl)amino)phenyl)-1H-1,2,4-triazol-1-yl)ethanol] | 1 to 5 µM
OCCn1nnc(-c2ccccc2Nc2cccc(Cl)c2)n1 [Compound 250, 2-(5-(2-((3-chlorophenyl)amino)phenyl)-2H-tetrazol-2-yl)ethanol] | 1 to 5 µM
OCCn1nnc(-c2ccccc2Nc2ccc(F)cc2)n1 [Compound 8, 2-[5-[2-(4-fluoroanilino)phenyl]tetrazol-2-yl]ethanol] | 0.1 to 1 µM
NC(=O)Cn1nnc(-c2ccccc2Nc2ccc(C(F)(F)F)cc2)n1 [Compound 102, 2-[5-[2-[4-(trifluoromethyl)anilino]phenyl]tetrazol-2-yl]acetamide] | < 0.1 µM

Same assay, conditions: 24 hrs compound treatment, starting from 3 uM, 1:3 dilution, 10 points; read-out: Firefly Luciferase IC50

SMILES | IC50
FC(F)(F)c1ccc(Nc2ccccc2-c2nnn(CC3CCC3)n2)cc1 [Compound 170, 2-(2-(Cyclobutylmethyl)-2H-tetrazol-5-yl)-N-(4-(trifluoromethyl)phenyl)aniline] | 0.1 to 1 µM
CS(=O)(=O)NCCn1nnc(-c2ccccc2Nc2ccc(C(F)(F)F)cc2)n1 [Compound 93, N-[2-[5-[2-[4-(trifluoromethyl)anilino]phenyl]tetrazol-2-yl]ethyl]methane Sulfonamide] | 1 to 5 µM
OCCCn1nnc(-c2ccccc2Nc2ccc(C(F)(F)F)cc2)n1 [Compound 98, 3-(5-(2-((4-(trifluoromethyl)phenyl)amino)phenyl)-2H-tetrazol-2-yl)propan-1-01] | < 0.1 µM
FC(F)(F)Oc1ccc(Nc2ccccc2-c2nnn(Cc3ccncc3)n2)cc1 [Compound 53, 2-[2-(4-pyridylmethyl)tetrazol-5-yl]-N-[4-(trifluoromethoxy)phenyl]aniline] | 1 to 5 µM
NCCn1cnc(-c2ccccc2Nc2ccc(C(F)(F)F)cc2)n1 [Compound 230, 2-(1-(2-aminoethyl)-1H-1,2,4-triazol-3-yl)-N-(4-(trifluoromethyl)phenyl)aniline] | 0.1 to 1 µM
FC(F)(F)c1ccc(Nc2ccccc2-c2nnn(C3COC3)n2)cc1 [Compound 123, 2-[2-(oxetan-3-yl)tetrazol-5-yl]-N-[4-(trifluoromethyl)phenyl]aniline] | < 0.1 µM
O=C(O)Cn1cc(-c2ccccc2Nc2ccc(C(F)(F)F)cc2)cn1 [Compound 61, 2-(4-(2-((4-(trifluoromethyl)phenyl)amino)phenyl)-1H-pyrazol-1-yl)acetic Acid] | 0.1 to 1 µM
O[C@H]1CCC[C@H]1n1nnc(-c2ccccc2Nc2ccc(C(F)(F)F)cc2)n1 [Compound 201, (1S,2R)-2-(5-(2-((4-(trifluoromethyl)phenyl)amino)phenyl)-2H-tetrazol-2-yl)cyclopentan-1-ol] | < 0.1 µM
CC(=O)NCCn1nnc(-c2ccccc2Nc2ccc(C(F)(F)F)cc2)n1 [Compound 92, N-[2-[5-[2-[4-(trifluoromethyl)anilino]phenyl]tetrazol-2-yl]ethyl]acetamide] | 0.1 to 1 µM
CCOC(=O)Cn1cc(-c2ccccc2Nc2ccc(C(F)(F)F)cc2)c(C)n1 [Compound 76, ethyl 2-[3-methyl-4-[2-[4-(trifluoromethyl)anilino]phenyl]pyrazol-1-yl]acetate] | 0.1 to 1 µM
OCCCn1nnc(-c2ccccc2Nc2cccc(C(F)(F)F)c2)n1 [Compound 13, 3-[5-[2-[3-(trifluoromethyl)anilino]phenyl]tetrazol-2-yl]propan-1-ol] | 0.1 to 1 µM
CC(=O)N1CCCC(O)(Cn2nnc(-c3ccccc3Nc3ccc(C(F)(F)F)cc3)n2)C1 (centres unmarked) [Compound 155, 1-(3-hydroxy-3-((5-(2-((4-(trifluoromethyl)phenyl)amino)phenyl)-2H-tetrazol-2-yl)methyl)piperidin-1-yl) Ethanone] | 0.1 to 1 µM
FC(F)(F)c1ccc(Nc2ccccc2-c2nnn(C3CCCOC3)n2)cc1 (centres unmarked) [Compound 120, 2-(2-tetrahydropyran-3-yltetrazol-5-yl)-N-[4-(trifluoromethyl)phenyl]aniline] | 0.1 to 1 µM
OCCn1nnc(-c2ccccc2Nc2ccc(F)cc2F)n1 [Compound 28, 2-(5-(2-((2,4-difluorophenyl)amino)phenyl)-2H-tetrazol-2-yl)ethan-1-ol] | 0.1 to 1 µM
OC1(Cn2nnc(-c3ccccc3Nc3ccc(C(F)(F)F)cc3)n2)CC1 [Compound 204, 1-((5-(2-((4-(trifluoromethyl)phenyl)amino)phenyl)-2H-tetrazol-2-yl)methyl) cyclopropan-1-ol] | < 0.1 µM
FC(F)(F)Oc1ccc(Nc2ccccc2-c2nnn(Cc3cccnc3)n2)cc1 [Compound 51, 2-[2-(3-pyridylmethyl)tetrazol-5-yl]-N-[4-(trifluoromethoxy)phenyl]aniline] | 1 to 5 µM
FC(F)(F)c1ccc(Nc2ccccc2-c2nnn(Cc3ccccn3)n2)cc1 [Compound 52, 2-[2-(2-pyridylmethyl)tetrazol-5-yl]-N-[4-(trifluoromethyl)phenyl]aniline] | 0.1 to 1 µM

The next lines start with the values.

IC50 | SMILES
1 to 5 µM | O=C(Cn1nnc(-c2ccccc2Nc2ccc(C(F)(F)F)cc2)n1)c1ccccc1 [Compound 130, 1-phenyl-2-[5-[2-[4-(trifluoromethyl)anilino]phenyl]tetrazol-2-yl]ethanone]
< 0.1 µM | OC(Cn1nnc(-c2ccccc2Nc2ccc(C(F)(F)F)cc2)n1)C(F)(F)F (centres unmarked) [Compound 131, 1,1,1-trifluoro-3-[5-[2-[4-(trifluoromethyl)anilino]phenyl]tetrazol-2-yl]propan-2-ol]
< 0.1 µM | OC1(Cn2nnc(-c3ccccc3Nc3ccc(C(F)(F)F)cc3)n2)COC1 [Compound 186, 3-((5-(2-((4-(trifluoromethyl)phenyl)amino)phenyl)-2H-tetrazol-2-yl)methyl) oxetan-3-ol]
0.1 to 1 µM | O=C1NC(Cn2nnc(-c3ccccc3Nc3ccc(C(F)(F)F)cc3)n2)CO1 (centres unmarked) [Compound 180, 4-((5-(2-((4-(trifluoromethyl)phenyl)amino)phenyl)-2H-tetrazol-2-yl)methyl)oxazolidin-2-one]
0.1 to 1 µM | O[C@@H]1CNC[C@H]1n1nnc(-c2ccccc2Nc2ccc(C(F)(F)F)cc2)n1 [Compound 233, (3R,4R)-4-(5-(2-((4-(trifluoromethyl)phenyl)amino)phenyl)-2H-tetrazol-2-yl)pyrrolidin-3-ol]
< 0.1 µM | OCCn1nnc(-c2cc(C3CC3)ccc2Nc2ccc(C(F)(F)F)cc2)n1 [Compound 255, 2-(5-(5-cyclopropyl-2-((4-(trifluoromethyl)phenyl)amino)phenyl)-2H-tetrazol-2-yl)ethanol]
0.1 to 1 µM | OC1(Cn2nnc(-c3ccccc3Nc3ccc(C(F)(F)F)cc3)n2)CCNC1 (centres unmarked) [Compound 153, 3-((5-(2-((4-(trifluoromethyl)phenyl)amino)phenyl)-2H-tetrazol-2-yl)methyl)pyrrolidin-3-ol]
0.1 to 1 µM | NCC(CO)n1nnc(-c2ccccc2Nc2ccc(C(F)(F)F)cc2)n1 (centres unmarked) [Compound 259, 3-amino-2-(5-(2-((4-(trifluoromethyl)phenyl)amino)phenyl)-2H-tetrazol-2-yl)propan-1-ol]
< 0.1 µM | OCCn1nnc(-c2ccc(F)cc2Nc2ccc(C(F)(F)F)cc2)n1 [Compound 181, 2-[5-[4-fluoro-2-[4-(trifluoromethyl)anilino]phenyl]tetrazol-2-yl]ethanol]
0.1 to 1 µM | FC(F)(F)OCCn1nnc(-c2ccccc2Nc2ccc(C(F)(F)F)cc2)n1 [Compound 185, 2-(2-(2-(trifluoromethoxy)ethyl)-2H-tetrazol-5-yl)-N-(4-(trifluoromethyl)phenyl)aniline]
< 0.1 µM | CCOC(=O)C(C)n1nnc(-c2ccccc2Nc2ccc(C(F)(F)F)cc2)n1 (centres unmarked) [Compound 116, ethyl 2-[5-[2-[4-(trifluoromethyl)anilino]phenyl]tetrazol-2-yl]propanoate]
< 0.1 µM | CC(CN)n1nnc(-c2ccccc2Nc2ccc(C(F)(F)F)cc2)n1 (centres unmarked) [Compound 218, 2-(2-(1-aminopropan-2-yl)-2H-tetrazol-5-yl)-N-(4-(trifluoromethyl)phenyl) Aniline]
1 to 5 µM | FC(F)(F)c1ccc(Nc2ccccc2-c2nnn(-c3cccnc3)n2)cc1 [Compound 165, 2-[2-(3-pyridyl)tetrazol-5-yl]-N-[4-(trifluoromethyl)phenyl]aniline]
1 to 5 µM | OC1(Cn2nnc(-c3ccccc3Nc3ccc(C(F)(F)F)cc3)n2)CCNCC1 [Compound 135, 4-[[5-[2-[4-(trifluoromethyl)anilino]phenyl]tetrazol-2-yl]methyl]piperidin-4-ol]
